Measurements taken from US20250320249A1, “PEPTIDE HAVING ACTIVITY OF IMPROVING STATE OF SKIN, AND USE THEREOF” (CAREGEN CO., LTD., priority 2021, published 2025).

How the values were obtained:
[1] = tested on: elastin; assay: Expression of extracellular matrix constituent factor in NIH3T3 cells (RT-PCR); assay type: cell-based, mouse; conditions: 50 μM or 100 μM peptide, 24 hours, FIG. 2, FIG. 3C
Description: (§1) In this example, the aim was to confirm the effect of the peptide according to an example on improving endogenous skin aging, including improvement of wrinkles and enhancement of elasticity, etc., by evaluating the expression levels of collagen type 1 (Col1a1), fibronectin, or elastin, which are known components of the dermis.
(§2) Specifically, NIH3T3 cells were seeded in a 6-well plate at a density of 3×10^5 cells/well and cultured for 24 hours. The cells were then washed once with serum-free DMEM media, and the culture medium was replaced with serum-free DMEM media. Thereafter, 50 μM or 100 μM of the peptide consisting of the amino acid sequence of SEQ ID NO: 1 was dispensed into the medium, and cultured in a CO2 incubator at 37° C. for 24 hours. The culture was then washed twice with PBS, and RNA was isolated from the culture using easy blue (iNtRON, Korea). Using an RT kit (Enzynomics, Korea), 1 μg of the isolated RNA was reverse transcribed to synthesize the respective cDNA. Polymerase chain reaction (PCR) was then performed using the cDNAs and primers Col1a1, fibronectin, and elastin. Meanwhile, the untreated group was used as the control group, and the group to which TGF-β1 was added (TGF-β1) was used as the positive control group, the nucleotide sequences of the primers used in this example are shown in Table 2 below.

[2] = tested on: collagen type 1 (Col1a1); assay: as above; assay type: cell-based, mouse; conditions: 50 μM or 100 μM peptide, 24 hours, FIG. 2, FIG. 3A
Description: as §1, §2

[3] = tested on: fibronectin; assay: as above; assay type: cell-based, mouse; conditions: 50 μM or 100 μM peptide, 24 hours, FIG. 2, FIG. 3B
Description: as §1, §2

[4] = tested on: HaCaT cells; assay: Proliferation of skin cells (SRB staining, survival rate); assay type: cell-based, human; conditions: 50 μM or 100 μM peptide, 72 hours, serum-free DMEM, FIG. 1B
Description: (§3) In this example, the aim was to confirm the effect of a peptide according to an example on proliferation of skin cells, by evaluating changes in survival rate of NIH3T3 cells, which are mouse fibroblasts, or HaCaT cells, which are human keratinocytes.
(§4) Specifically, NIH3T3 cells or HaCaT cells were seeded in a 96-well plate at a density of 5×10^3 cells/well and cultured for 24 hours. The cells were then washed once with serum-free DMEM media, and the culture medium was replaced with serum-free DMEM media. Then, 50 μM or 100 μM of the peptide consisting of the amino acid sequence of SEQ ID NO: 1 was dispensed into the medium, and cultured in a CO2 incubator at 37° C. for 72 hours. The culture was then washed twice with PBS and treated with 4% paraformaldehyde (PFA) solution for 15 minutes to fix the cultured cells. The culture was then washed twice with distilled water, treated with SRB solution for 1 hour to stain the cells, washed with 1% acetic acid solution, and dried. The dried culture was then dissolved in 20 mM Tris buffer solution and the absorbance at 560 nm was measured using a microplate reader (Molecular Devices, USA). In this example, the untreated group was used as the control group, and the group to which insulin-like growth factor was added (IGF) was used as the positive control group.

[5] = tested on: HaCaT cells; assay: Level of reactive oxygen species in ultraviolet-irradiated skin cells (DCF-DA, flow cytometry); assay type: cell-based, human; conditions: 15 m J/cm2 ultraviolet rays, 50 μM or 100 μM peptide, 24 hours, FIG. 7B
Description: (§5) In this example, the aim was to confirm the effect of the peptide according to an embodiment on the antioxidant effect of skin cells induced by ultraviolet rays, by evaluating the level of reactive oxygen species in skin cells increased by ultraviolet irradiation.
(§6) Specifically, NIH3T3 cells or HaCaT cells were seeded in a 6-well plate at a density of 5×10^5 cells/well and cultured for 24 hours. The cells were then washed once with serum-free DMEM media, the culture medium was replaced with serum-free DMEM media, and 50 μM or 100 μM of the peptide consisting of the amino acid sequence of SEQ ID NO: 1 was dispensed to the culture medium. The culture medium dispensed with the peptide was cultured in a CO2 incubator at 37° C. for 1 hour, transferred to an e-tube, mixed with 100 μl of PBS, and dispensed into a well plate. Afterwards, using a UV irradiator (VILBER LOURMAT, France), 6 J/cm2 ultraviolet rays were irradiated to NIH3T3 cells, and 15 m J/cm2 ultraviolet rays were irradiated to HaCaT cells. The PBS in the well plate was then removed, 900 μL of the culture medium in which the peptides were dispensed was added, and the plate was cultured in a CO2 incubator at 37° C. for 24 hours. […] After washing the centrifuged cells with PBS, FL1 fluorescence values were measured through flow cytometry (FACS, BD, USA). […]

[6] = tested on: NIH3T3 cells; assay: Proliferation of skin cells (SRB staining, survival rate); assay type: cell-based, mouse; conditions: 50 μM or 100 μM peptide, 72 hours, serum-free DMEM, FIG. 1A
Description: as §3, §4

[7] = tested on: sirtuin-1 (SIRT-1); assay: Expression of skin barrier factor in HaCaT cells (RT-PCR); assay type: cell-based, human; conditions: 50 μM or 100 μM peptide, 24 hours, FIG. 4, FIG. 5A
Description: (§7) In this example, the aim was to confirm the effect of the peptides according to an example on skin barrier defense, by evaluating the expression levels of sirtuin-1 (SIRT-1) or aquaporin-3 (AQP3).
(§8) Specifically, HaCaT cells were seeded in a 6-well plate at a density of 3×10^5 cells/well and cultured for 24 hours. The cells were then washed once with serum-free DMEM media, and the culture medium was replaced with serum-free DMEM media. Thereafter, 50 μM or 100 μM of the peptide consisting of the amino acid sequence of SEQ ID NO: 1 was dispensed into the medium, and cultured in a CO2 incubator at 37° C. for 24 hours. The culture was then washed twice with PBS, and RNA was isolated from the culture using easy blue (iNtRON, Korea). Using the RT kit (Enzynomics, Korea), 1 μg of the isolated RNA was reverse transcribed to synthesize the respective cDNA. Polymerase chain reaction was then performed using the cDNAs and primers sirtuin-1 and aquaporin-3. Meanwhile, the untreated group was used as the control group, and the group to which EGF was added (EGF) was used as the positive control group, the nucleotide sequences of the primers used in this example are shown in Table 3 below.

[8] = tested on: aquaporin-3 (AQP3); assay: as above; assay type: cell-based, human; conditions: 50 μM or 100 μM peptide, 24 hours, FIG. 4, FIG. 5B
Description: as §7, §8

[9] = tested on: NIH3T3 cells; assay: Level of reactive oxygen species in ultraviolet-irradiated skin cells (DCF-DA, flow cytometry); assay type: cell-based, mouse; conditions: 6 J/cm2 ultraviolet rays, 50 μM or 100 μM peptide, 24 hours, FIG. 7A
Description: as §5, §6

[10] = tested on: HaCaT cells; assay: Survival rate of skin cells after apoptosis induced by ultraviolet irradiation (SRB); assay type: cell-based, human; conditions: 15 m J/cm^2 ultraviolet rays, 50 μM or 100 μM peptide, 72 hours, FIG. 6B
Description: (§9) In this example, the aim was to confirm the effect of the peptide according to an example on the inhibition of apoptosis or cell recovery of skin cells induced by ultraviolet rays, by evaluating the change in survival rate of skin cells whose apoptosis was induced by ultraviolet irradiation.
(§10) Specifically, NIH3T3 cells or HaCaT cells were seeded in a 96-well plate at a density of 1×10^4 cells/well and cultured for 24 hours. The cells were then washed once with serum-free DMEM media, the culture medium was replaced with serum-free DMEM media, and 50 μM or 100 μM of the peptide consisting of the amino acid sequence of SEQ ID NO: 1 was dispensed to the culture medium. The culture medium dispensed with the peptide was cultured in a CO2 incubator at 37° C. for 1 hour, transferred to an e-tube, mixed with 100 μl of PBS, and dispensed into a well plate. Afterwards, using a UV irradiator (VILBER LOURMAT, France), 6 J/cm^2 ultraviolet rays were irradiated to NIH3T3 cells, and 15 m J/cm^2 ultraviolet rays were irradiated to HaCaT cells. The PBS in the well plate was then removed, 900 μL of the culture medium in which the peptides were dispensed was added, and the plate was cultured in a CO2 incubator at 37° C. for 72 hours. […] The dried culture was then dissolved in 20 mM Tris buffer solution and the absorbance at 560 nm was measured using a microplate reader (Molecular Devices, USA). […]

[11] = tested on: NIH3T3 cells; assay: as above; assay type: cell-based, mouse; conditions: 6 J/cm^2 ultraviolet rays, 50 μM or 100 μM peptide, 72 hours, FIG. 6A
Description: as §9, §10

DGFND (Peptide 1) [SEQ ID NO: 1]
expression of elastin [1]: increased | expression of Col1a1 [2]: increased | expression of fibronectin [3]: increased | proliferation of keratinocytes [4]: promoted | level of reactive oxygen species in keratinocytes increased by ultraviolet irradiation [5]: reduced | proliferation of fibroblasts [6]: promoted | expression of SIRT-1 [7]: increased | expression of AQP3 [8]: increased | level of reactive oxygen species in fibroblasts increased by ultraviolet irradiation [9]: reduced | cell survival rate of keratinocytes reduced by ultraviolet irradiation [10]: restored | cell survival rate of fibroblasts reduced by ultraviolet irradiation [11]: restored
